# Experimental data: patent US11464765B2, “Use of an N-substituted pyridyl benzisoselazolone compound” (SHANGHAITECH UNIVERSITY, priority 2020, dated 2022)
# Like-named read-outs stand apart in the source and are kept apart here.
# Tests used:
# [1] = human, in vivo; cited from earlier work
# [2] = mice; cited from earlier work
# [3] = rats; cited from earlier work
# [4] = test system: novel coronavirus (SARS-CoV-2); test: in vitro cell-virus assay; type: cell-based
structure (smiles),measurement,setting,value
"O=c1c2ccccc2[se]n1-c1ccccc1 [ebselen, Ebselen]",clinical safety and tolerability,[1],safe and well tolerated
same,oral lethal dose,[2],> 2150 mg/kg
same,oral lethal dose,[3],> 4600 mg/kg
same,replication ability of SARS-CoV-2 in cells,[4]; FIG. 4,significantly inhibits the replication ability of SARS-CoV-2 in cells
same,cytopathy caused by novel coronavirus infection,"[4]; infected cells, FIG. 3",can prevent cytopathy caused by novel coronavirus infection
